Laboratory results reported in ChEMBL document CHEMBL1201862, “PubChem BioAssay data set” (2004).
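96-well plates; 48 h exposure; 5 concentrations. Endpoints by linear interpolation between flanking doses. Not reached: highest tested concentration assigned. Here, GI50 denotes the concentration required for 50% inhibition of growth.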 Active and inactive are the calls of the source. Rule as the data show it: active = GI50 up to about 1.1 µM and inactive = higher.

Tests used:
Assay in all cases: inhibition of tumour cell growth, NCI panel, 48 h
SNB-78 = test system: SNB-78
HOP-18 = test system: HOP-18
KM-20L2 = test system: KM-20L2
XF498 = test system: XF498
LXFL 529 = test system: LXFL 529
DMS-114 = test system: DMS-114
DMS-273 = test system: DMS-273
RXF 631 = test system: RXF 631
M19-MEL = test system: M19-MEL

Measured: GI50

NC1=NN(c2ccccc2)C(=O)C1/C(=N\NC(=O)c1cc2ccccc2cc1O)C(=O)Nc1nc([N+](=O)[O-])cs1 (configuration not stated)
inactive: SNB-78 > 100 µM | HOP-18 40 µM | KM-20L2 40.9 µM | XF498 36.6 µM | LXFL 529 34.8 µM | DMS-114 18.4 µM | DMS-273 > 45.2 µM | RXF 631 22.7 µM | M19-MEL 27.8 µM

N#C/C(=C\c1cccc(Cl)c1Cl)c1ccccc1
inactive: SNB-78 50.2 µM | HOP-18 52.2 µM | KM-20L2 > 100 µM | XF498 > 42.3 µM | LXFL 529 54 µM | DMS-114 43.7 µM | DMS-273 21 µM | RXF 631 50 µM | M19-MEL > 84.3 µM

COC(=O)C(CCS(=O)(=O)CC(=O)C(=O)Nc1cccc(C(C)=O)c1)C(=O)OC
inactive: SNB-78 > 100 µM | HOP-18 > 100 µM | KM-20L2 > 100 µM | XF498 > 100 µM | LXFL 529 > 100 µM | DMS-114 > 39.4 µM | DMS-273 > 100 µM | RXF 631 > 100 µM | M19-MEL > 100 µM
